According to ChEMBL document CHEMBL5550189, “Discovery of GS-7682, a Novel 4'-Cyano-Modified C-Nucleoside Prodrug with Broad Activity against Pneumo- and Picornaviruses and Efficacy in RSV-Infected African Green Monkeys” (J Med Chem, 2024):
Calls of active or inactive are those of the source. The rule behind the calls is not given here.

Legend:
[1] = Drug metabolism in Cynomolgous monkey assessed as half life of (2R,3S,4R,5S)-5-(4-aminopyrrolo[2,1-f][1,2,4]triazin-7-yl)-3,4-dihydroxy-2-(hydroxymethyl)tetrahydrofuran-2-carbonitrile metabolite at lung-deposited dose of 4 mg/kg, IT measured after 24 hrs by LC-MS/MS analysis; format: ADME, organism-based, Macaca fascicularis; settings: cynomolgus monkey, in vivo, other
SARS-CoV-2 = assay: Anti-viral activity against SARS-CoV-2 infected in human A549 cells expressing hACE2 by firefly reporter assay; format: functional, organism-based; settings: Severe acute respiratory syndrome coronavirus 2, A549
[2] = test system: Respiratory syncytial virus; assay: Antiviral activity against Fluc-fused RSV A2 infected in D-HBE-As cells incubated for 3 days by ONE Glo luciferase assay; format: functional, organism-based; settings: human respiratory syncytial virus, 72 h
[3] = AUC (0 to 24 hrs) in Cynomolgous monkey at 5 mg/kg, iv measured after 30 mins by LC-MS/MS analysis; format: ADME, organism-based, Macaca fascicularis; settings: cynomolgus monkey, in vivo
[4] = test system: Respiratory syncytial virus; assay: Antiviral activity against RSV A2 infected in human airway epithelium transwell culture assessed as decrease in viral RNA level by measuring log10 reduction in median viral load at 0.01 uM pretreated at apical side for 3 hrs followed by compound washout and subsequent viral infection at apical side for 3 hrs followed by removal of virus and recurrent addition of compound on day 1 and 2 at basolateral side measured on day 3 by RT-qPCR analysis; format: functional; settings: time 75 hrs
[5] = Drug concentration in lung of African green monkey at lung-deposited dose of 5.9 mg/kg, IT measured after 24 hrs by LC-MS/MS analysis; format: ADME, organism-based; settings: chlorocebus aethiops, in vivo, other
[6] = AUC (0 to 24 hrs) in Cynomolgous monkey at lung-deposited dose of 4 mg/kg, IT measured after 24 hrs by LC-MS/MS analysis; format: ADME, organism-based, Macaca fascicularis; settings: cynomolgus monkey, in vivo
[7] = Cmax in Cynomolgous monkey at lung-deposited dose of 4 mg/kg, IT measured after 24 hrs by LC-MS/MS analysis; format: ADME, organism-based, Macaca fascicularis; settings: cynomolgus monkey, in vivo
Enterovirus A71 = assay: Anti-viral activity against EV-71 (H) infected in human RD cells by MTS assay; format: functional, organism-based; settings: Enterovirus A
[8] = Drug metabolism in African green monkey assessed as half life of (2R,3S,4R,5S)-5-(4-aminopyrrolo[2,1-f][1,2,4]triazin-7-yl)-3,4-dihydroxy-2-(hydroxymethyl)tetrahydrofuran-2-carbonitrile metabolite at lung-deposited dose of 5.9 mg/kg, IT measured after 24 hrs by LC-MS/MS analysis; format: ADME, organism-based; settings: chlorocebus aethiops, in vivo, other
[9] = test system: Respiratory syncytial virus; assay: Antiviral activity against RSV A2 infected in Normal human bronchial epithelial cells assessed as inhibition of intracellular virus replication; format: functional, organism-based; settings: A2, Epithelial cell
[10] = test system: Respiratory syncytial virus; assay: Antiviral activity against RSV A2 infected in human airway epithelium transwell culture assessed as decrease in viral RNA level by measuring log10 reduction in median viral load at 0.05 uM pretreated at apical side for 3 hrs followed by compound washout and subsequent viral infection at apical side for 3 hrs followed by removal of virus and recurrent addition of compound on day 1 and 2 at basolateral side measured on day 3 by RT-qPCR analysis; format: functional; settings: time 75 hrs
[11] = test system: Respiratory syncytial virus; assay: Antiviral activity against RSV A2 infected in human airway epithelium transwell culture assessed as decrease in viral RNA level by measuring log10 reduction in median viral load at 0.25 uM pretreated at apical side for 3 hrs followed by compound washout and subsequent viral infection at apical side for 3 hrs followed by removal of virus and recurrent addition of compound on day 0 at apical side measured on day 3 by RT-qPCR analysis; format: functional; settings: time 75 hrs
[12] = Drug concentration in lung of Cynomolgous monkey at lung-deposited dose of 4 mg/kg, IT measured after 24 hrs by LC-MS/MS analysis; format: ADME, organism-based, Macaca fascicularis; settings: cynomolgus monkey, in vivo, other
[13] = Drug concentration in lung of Cynomolgous monkey measured per gram of tissue at 5 mg/kg, iv measured after 24 hrs by LC-MS/MS analysis; format: ADME, organism-based, Macaca fascicularis; settings: cynomolgus monkey, in vivo
[14] = Half life in Cynomolgous monkey at 5 mg/kg, iv measured after 30 mins by LC-MS/MS analysis; format: ADME, organism-based, Macaca fascicularis; settings: cynomolgus monkey, in vivo
[15] = Drug metabolism in Cynomolgous monkey assessed as AUC (0 to 24 hrs) of (2R,3S,4R,5S)-5-(4-aminopyrrolo[2,1-f][1,2,4]triazin-7-yl)-3,4-dihydroxy-2-(hydroxymethyl)tetrahydrofuran-2-carbonitrile metabolite at 5 mg/kg, iv measured after 30 mins by LC-MS/MS analysis; format: ADME, organism-based, Macaca fascicularis; settings: cynomolgus monkey, in vivo, 0.5 h
[16] = test system: Respiratory syncytial virus; assay: Antiviral activity against RSV A2 infected in D-HBE-As cells assessed as inhibition of intracellular virus replication; format: functional, organism-based; settings: human respiratory syncytial virus
[17] = Cytotoxicity against MDCK cells by MTS assay; format: toxicity, cell-based, Canis lupus familiaris; settings: dog
[18] = Cytotoxicity against human MT4 cells incubated for 5 days by Cell Titer Glo assay; format: toxicity, cell-based; settings: time 5 day
[19] = Half life in African green monkey at lung-deposited dose of 5.9 mg/kg, IT measured after 24 hrs by LC-MS/MS analysis; format: ADME, organism-based; settings: chlorocebus aethiops, in vivo
[20] = Cytotoxicity against human RD cells by MTS assay; format: toxicity, cell-based
[21] = Prodrug conversion in D-HBE-As cells assessed as ((2R,3S,4R,5S)-5-(4-aminopyrrolo[2,1-f][1,2,4]triazin-7-yl)-2-cyano-3,4-dihydroxytetrahydrofuran-2-yl)methyl tetrahydrogen triphosphate formation measured per million cells at 1 uM measured after 48 hrs by LC-MS/MS analysis; format: ADME, cell-based; settings: human
[22] = test system: Respiratory syncytial virus; assay: Antiviral activity against RSV A2 infected in human airway epithelium transwell culture assessed as decrease in viral RNA level by measuring log10 reduction in median viral load at 0.01 uM pretreated at apical side for 3 hrs followed by compound washout and subsequent viral infection at apical side for 3 hrs followed by removal of virus and recurrent addition of compound on day 0 at apical side measured on day 3 by RT-qPCR analysis; format: functional; settings: time 75 hrs
[23] = Drug metabolism in African green monkey assessed as AUC (0 to 24 hrs) of (2R,3S,4R,5S)-5-(4-aminopyrrolo[2,1-f][1,2,4]triazin-7-yl)-3,4-dihydroxy-2-(hydroxymethyl)tetrahydrofuran-2-carbonitrile metabolite at lung-deposited dose of 5.9 mg/kg, IT measured after 24 hrs by LC-MS/MS analysis; format: ADME, organism-based; settings: chlorocebus aethiops, in vivo, other
[24] = test system: Respiratory syncytial virus; assay: Antiviral activity against RSV infected in African green monkey assessed as reduction in viral RNA copies in BAL at lung-deposited dose of 1.6 to 7.6 mg/kg, IT qd for 6 days measured for 3 to 11 days by RT-qPCR analysis; format: functional, organism-based; settings: dose 1.6-7.6 mg/kg, time 11.0 day
[25] = AUC (0 to 24 hrs) in African green monkey at lung-deposited dose of 5.9 mg/kg, IT measured after 24 hrs by LC-MS/MS analysis; format: ADME, organism-based; settings: chlorocebus aethiops, in vivo
[26] = test system: Respiratory syncytial virus; assay: Antiviral activity against RSV infected in African green monkey assessed as reduction in viral load in BAL at lung-deposited dose of 1.6 to 7.6 mg/kg, IT qd for 6 days measured on day 7 to 9 by RT-qPCR analysis; format: functional, organism-based; settings: dose 1.6-7.6 mg/kg, time 9.0 day
[27] = Half life in Cynomolgous monkey at lung-deposited dose of 4 mg/kg, IT measured after 24 hrs by LC-MS/MS analysis; format: ADME, organism-based, Macaca fascicularis; settings: cynomolgus monkey, in vivo

COC(=O)[C@H](C)N[P@](=O)(OC[C@@]1(C#N)O[C@@H](c2ccc3c(N)ncnn23)[C@H](OC(=O)C(C)C)[C@@H]1OC(=O)C(C)C)Oc1ccccc1
t1/2 [1]: 38.8 h
EC50 (SARS-CoV-2): 4750 nM
EC50 [2]: 6 nM
AUC(0-t) at 0.5 h [3]: 0.962 µM·h
Activity [4]: 0.2 log10/ml
Drug uptake [5]: 24.6 nmol
AUC(0-t) at 24 h [6]: 1.86 µM·h
Cmax [7]: 620 nM
EC50 (Enterovirus A71): 83 nM
t1/2 [8]: 14.7 h
IC50 [9]: < 38 nM
Activity [10]: 0.5 log10/ml
Activity [11]: 1.9 log10/ml
Drug uptake [12]: 20.5 nmol
Drug uptake [13]: 4.28 nmol/g
half-life [14]: 0.34 h
AUC [15]: 6.03 µM·h
IC50 [16]: 97 nM
CC50 [17]: > 2000 nM
CC50 at 120 h [18]: 3240 nM
half-life [19]: 7.01 h
CC50 [20]: > 2000 nM
Drug metabolism [21]: 113.3 pM
Activity [22]: 0.2 log10/ml
AUC [23]: 3.39 µM·h
Activity [24]: Active
AUC(0-t) at 24 h [25]: 1.74 µM·h
Activity [26]: inactive
half-life [27]: 13 h
